In article PMC6348054 (Bioorganic & medicinal chemistry letters, 2018):

System: 20S proteasome core particle (20S CP)
Experiment: FRET peptide hydrolysis assay, percent stimulation over basal
Type: biochemical, Homo sapiens

Stimulation: 160%
Compound: CCCCC/C=C\C/C=C\CCCCCCCC(=O)O [compound 15]
